Laboratory results: patent publication US10442803B2, “Tricyclic heterocycles as bet protein inhibitors” (Incyte Corporation, priority 2013, dated 2019)
Where a name gives a salt, the structure may show the parent alone.

System: KMS.12.BM cells
Assay: KMS.12.BM cell viability assay
Assay type: cell-based
Details: 72 h; KMS.12.BM human myeloma cells, 3 days, Cell Titer-GLO ATP quantitation; read-out: KMS cellular IC50
Experimental: KMS.12.BM cell line (human myeloma) was purchased from JCRB (Osaka, Japan) and maintained in RPMI with 10% FBS culture medium. To measure the cytotoxic activity of the compounds through ATP quantitation, the KMS.12.BM cells are plated in the RPMI culture medium at 5000 cells/well/per 100 μL into a 96-well polystyrene clear black tissue culture plate (Greiner-bio-one through VWR, NJ), in the presence or absence of a concentration range of test compounds. After 3 days, […] Cell Titer-GLO Luminescent (Promega, Madison, Wis.) cell culture agent is added to each well for 10 minutes at room temperature to stabilize the luminescent signal. This determines the number of viable cells in culture based on quantitation of the ATP present, which signals the presence of metabolically active cells. Luminescence is measured with the Top Count 384 (Packard Bioscience through Perkin Elmer, Boston, Mass.).
IC50 data for the Examples is presented in Table 4 as determined by Assay B1.

Question: For `Cc1cc2c(ccc3nnc(C)n32)n1Cc1ccc(O)cc1` [Example 35, 4-[(1,7-dimethyl-6H-pyrrolo[2,3-e][1,2,4]triazolo[4,3-a]pyridin-6-yl)methyl]phenol], which IC50 is on record?
Answer: The IC50 was ≤ 1000 nM.

Question: How did the IC50 turn out when `CNC(=O)c1cc2c(ccc3nnc(C)n32)n1Cc1cc(Cl)cc(CN2CCC(F)(F)C2)c1` [Example 134, 6-{3-Chloro-5-[(3,3-difluoropyrrolidin-1-yl)methyl]benzyl}-N,1-dimethyl-6H-pyrrolo[2,3-e][1,2,4]triazolo[4,3-a]pyridine-7-carboxamide 2.4×(trifluoroacetate) salt] was run?
Answer: Its IC50 is ≤ 1000 nM.

Question: `CCn1cnc(-c2cc3c(ccc4nnc(C)n43)n2Cc2ccccc2)c1` [Example 80, 6-benzyl-7-(1-ethyl-1H-imidazol-4-yl)-1-methyl-6H-pyrrolo[2,3-e][1,2,4]triazolo[4,3-a]pyridine] was tested. Which IC50 did it give?
Answer: Its IC50 is ≤ 1000 nM.

Question: Which IC50 does the source give for `Cc1nnc2ccc3c(cc(-c4ccn(C5(CC#N)CN(S(C)(=O)=O)C5)n4)n3Cc3cccc(Cl)c3)n12` [Example 107, [3-{3-[6-(3-chlorobenzyl)-1-methyl-6H-pyrrolo[2,3-e][1,2,4]triazolo[4,3-a]pyridin-7-yl]-1H-pyrazol-1-yl}-1-(methylsulfonyl)azetidin-3-yl]acetonitrile] here?
Answer: Its IC50 is ≤ 1000 nM.

Question: For `Cc1cc2c(ccc3nnc(C)n32)n1Cc1ccc(CN2CCC2)cc1` [Example 50, 6-[4-(azetidin-1-ylmethyl)benzyl]-1,7-dimethyl-6H-pyrrolo[2,3-e][1,2,4]triazolo[4,3-a]pyridine], which IC50 is on record?
Answer: Its IC50 is 1000 to 10000 nM.

Question: `Cc1cc2c(cc(N[C@H]3CCN(C(=O)OC(C)(C)C)C3)c3nnc(C)n32)n1Cc1ccccc1` [Example 150, tert-butyl (3S)-3-[(6-benzyl-1,7-dimethyl-6H-pyrrolo[2,3-e][1,2,4]triazolo[4,3-a]pyridin-4-yl)amino]pyrrolidine-1-carboxylate] was tested. Which IC50 did it give?
Answer: Its IC50 is 1000 to 10000 nM.

Question: `Cc1nnc2ccc3c(cc(-c4ccn(C5CN(C(=O)CN(C)C)C5)n4)n3Cc3cccc(Cl)c3)n12` [Example 162, 2-(3-{3-[6-(3-Chlorobenzyl)-1-methyl-6H-pyrrolo[2,3-e][1,2,4]triazolo[4,3-a]pyridin-7-yl]-1H-pyrazol-1-yl}azetidin-1-yl)-N,N-dimethyl-2-oxoethanamine bis(trifluoroacetate) salt] was tested. Which IC50 did it give?
Answer: Its IC50 is ≤ 1000 nM.

Question: How did the IC50 turn out when `Cc1cc2c(cc(NC3CCCN(C)C3)c3nnc(C)n32)n1Cc1ccccc1` (racemic) [Example 144, 6-benzyl-1,7-dimethyl-N-(1-methylpiperidin-3-yl)-6H-pyrrolo[2,3-e][1,2,4]triazolo[4,3-a]pyridin-4-amine (racemic)] was run?
Answer: Its IC50 is 1000 to 10000 nM.

Question: For `CNC(=O)c1cc2c(ccc3nnc(C)n32)n1Cc1cccc(F)c1` [Example 102, 6-(3-fluorobenzyl)-N,1-dimethyl-6H-pyrrolo[2,3-e][1,2,4]triazolo[4,3-a]pyridine-7-carboxamide], which IC50 is on record?
Answer: The IC50 was ≤ 1000 nM.

Question: With `Cc1nnc2ccc3c(ccn3Cc3ccccc3)n12` [Example 1, 6-benzyl-1-methyl-6H-pyrrolo[2,3-e][1,2,4]triazolo[4,3-a]pyridine] as the molecule, how does the IC50 read?
Answer: The IC50 was 1000 to 10000 nM.

Question: How did the IC50 turn out when `Cc1nnc2ccc3c(cc(C(=O)NCc4ccncc4)n3Cc3cccc(Cl)c3)n12` [Example 130, 6-(3-Chlorobenzyl)-1-methyl-N-(pyridin-4-ylmethyl)-6H-pyrrolo[2,3-e][1,2,4]triazolo[4,3-a]pyridine-7-carboxamide bis(trifluoroacetate) salt] was run?
Answer: The IC50 was ≤ 1000 nM.

Question: For `Cc1ccccc1Cn1c(C)cc2c1ccc1nnc(C)n12` [Example 17, 1,7-dimethyl-6-(2-methylbenzyl)-6H-pyrrolo[2,3-e][1,2,4]triazolo[4,3-a]pyridine], which IC50 is on record?
Answer: The IC50 was ≤ 1000 nM.

Question: How did the IC50 turn out when `CC(=O)Nc1cccc(Cn2c(C)cc3c2ccc2nnc(C)n23)c1` [Example 25, N-{3-[(1,7-dimethyl-6H-pyrrolo[2,3-e][1,2,4]triazolo[4,3-a]pyridin-6-yl)methyl]phenyl}acetamide trifluoroacetate salt] was run?
Answer: Its IC50 is ≤ 1000 nM.

Question: Which IC50 does the source give for `Cc1nnc2ccc3c(cc(-c4ccn(CCN(C)C)n4)n3Cc3ccccc3)n12` [Example 89, 2-[3-(6-benzyl-1-methyl-6H-pyrrolo[2,3-e][1,2,4]triazolo[4,3-a]pyridin-7-yl)-1H-pyrazol-1-yl]-N,N-dimethylethanamine] here?
Answer: Its IC50 is ≤ 1000 nM.

Question: `CN[C@H]1CC[C@H](Nc2cc3c(cc(C)n3Cc3ccccc3)n3c(C)nnc23)CC1` [Example 219, trans-N-(6-Benzyl-1,7-dimethyl-6H-pyrrolo[2,3-e][1,2,4]triazolo[4,3-a]pyridin-4-yl)-N′-methylcyclohexane-1,4-diamine] was tested. Which IC50 did it give?
Answer: The IC50 was ≤ 1000 nM.

Question: How did the IC50 turn out when `Cc1cc2c(ccc3nnc(C)n32)n1S(=O)(=O)c1ccccc1` [Example 2a, 1,7-dimethyl-6-(phenylsulfonyl)-6H-pyrrolo[2,3-e][1,2,4]triazolo[4,3-a]pyridine] was run?
Answer: The IC50 was 1000 to 10000 nM.

Question: Which IC50 does the source give for `Cc1nnc2ccc3c(cc(C(=O)N[C@H]4C[C@@H](C#N)C4)n3Cc3ccccc3)n12` [Example 101, 6-benzyl-N-(cis-3-cyanocyclobutyl)-1-methyl-6H-pyrrolo[2,3-e][1,2,4]triazolo[4,3-a]pyridine-7-carboxamide] here?
Answer: The IC50 was 1000 to 10000 nM.

Question: `COc1ccc(Cn2c(C)cc3c2ccc2nnc(C)n23)cc1` [Example 34, 6-(4-methoxybenzyl)-1,7-dimethyl-6H-pyrrolo[2,3-e][1,2,4]triazolo[4,3-a]pyridine] was tested. Which IC50 did it give?
Answer: Its IC50 is ≤ 1000 nM.

Question: How did the IC50 turn out when `Cc1nnc2ccc3c(cc(-c4ncco4)n3Cc3ccccc3)n12` [Example 143, 6-benzyl-1-methyl-7-(1,3-oxazol-2-yl)-6H-pyrrolo[2,3-e][1,2,4]triazolo[4,3-a]pyridine trifluoroacetate salt] was run?
Answer: The IC50 was ≤ 1000 nM.

Question: `CNC(=O)c1cc2c(ccc3nnc(C)n32)n1Cc1cc(Cl)cc(CN2CCCC2)c1` [Example 132, 6-[3-Chloro-5-(pyrrolidin-1-ylmethyl)benzyl]-N,1-dimethyl-6H-pyrrolo[2,3-e][1,2,4]triazolo[4,3-a]pyridine-7-carboxamide 2.5×(trifluoroacetate) salt] was tested. Which IC50 did it give?
Answer: Its IC50 is ≤ 1000 nM.

Question: `Cc1nnc2ccc3c(cc(-c4cn[nH]c4)n3Cc3ccccc3)n12` [Example 63, 6-benzyl-1-methyl-7-(1H-pyrazol-4-yl)-6H-pyrrolo[2,3-e][1,2,4]triazolo[4,3-a]pyridine] was tested. Which IC50 did it give?
Answer: Its IC50 is ≤ 1000 nM.

Question: `Cc1cc2c(ccc3nnc(C)n32)n1CC1CCCC1` [Example 13, 6-(cyclopentylmethyl)-1,7-dimethyl-6H-pyrrolo[2,3-e][1,2,4]triazolo[4,3-a]pyridine] was tested. Which IC50 did it give?
Answer: The IC50 was 1000 to 10000 nM.

Question: Which IC50 does the source give for `Cc1cc2c(cc(NC(=O)NC(C)C)c3nnc(C)n32)n1Cc1ccccc1` [Example 250, 1-(6-Benzyl-1,7-dimethyl-6H-pyrrolo[2,3-e][1,2,4]triazolo[4,3-a]pyridin-4-yl)-3-isopropylurea] here?
Answer: The IC50 was ≤ 1000 nM.

Question: With `Cc1cc2c(cc(N[C@H]3C[C@H](O)C3)c3nnc(C)n32)n1Cc1ccccc1` [Example 247, trans-3-(6-Benzyl-1,7-dimethyl-6H-pyrrolo[2,3-e][1,2,4]triazolo[4,3-a]pyridin-4-ylamino)cyclobutanol] as the molecule, how does the IC50 read?
Answer: The IC50 was ≤ 1000 nM.

Question: For `Cc1nnc2ccc3c(cc(C(=O)NCC(C)C)n3Cc3ccccc3)n12` [Example 125, 6-Benzyl-N-isobutyl-1-methyl-6H-pyrrolo[2,3-e][1,2,4]triazolo[4,3-a]pyridine-7-carboxamide trifluoroacetate], which IC50 is on record?
Answer: Its IC50 is ≤ 1000 nM.

Question: For `Cc1cc2c(ccc3nnc(C)n32)n1Cc1cccc(CO)c1` [Example 26, {3-[(1,7-dimethyl-6H-pyrrolo[2,3-e][1,2,4]triazolo[4,3-a]pyridin-6-yl)methyl]phenyl}methanol trifluoroacetate salt], which IC50 is on record?
Answer: The IC50 was ≤ 1000 nM.

Question: With `CCC(=O)N1CC(n2ccc(-c3cc4c(ccc5nnc(C)n54)n3Cc3cccc(Cl)c3)n2)C1` [Example 163, 6-(3-Chlorobenzyl)-1-methyl-7-[1-(1-propionylazetidin-3-yl)-1H-pyrazol-3-yl]-6H-pyrrolo[2,3-e][1,2,4]triazolo[4,3-a]pyridine trifluoroacetate salt] as the molecule, how does the IC50 read?
Answer: The IC50 was ≤ 1000 nM.

Question: Which IC50 does the source give for `Cc1cc2c(cc(NC3CCN(C(=O)OC(C)(C)C)CC3)c3nnc(C)n32)n1Cc1ccccc1` [Example 214, tert-Butyl 4-[(6-benzyl-1,7-dimethyl-6H-pyrrolo[2,3-e][1,2,4]triazolo[4,3-a]pyridin-4-yl)amino]piperidine-1-carboxylate] here?
Answer: Its IC50 is 1000 to 10000 nM.

Question: For `Cc1nnc2ccc3c(cc(-c4ccn(C)n4)n3Cc3cccc(CN4CCC4)c3)n12` [Example 184, 6-[3-(Azetidin-1-ylmethyl)benzyl]-1-methyl-7-(1-methyl-1H-pyrazol-3-yl)-6H-pyrrolo[2,3-e][1,2,4]triazolo[4,3-a]pyridine bis(trifluoroacetate) salt], which IC50 is on record?
Answer: The IC50 was ≤ 1000 nM.

Question: `Cc1nnc2ccc3c(cc(C(=O)NCC(C)C)n3Cc3cccc(Cl)c3)n12` [Example 129, 6-(3-Chlorobenzyl)-N-isobutyl-1-methyl-6H-pyrrolo[2,3-e][1,2,4]triazolo[4,3-a]pyridine-7-carboxamide trifluoroacetate salt] was tested. Which IC50 did it give?
Answer: The IC50 was ≤ 1000 nM.

Question: Which IC50 does the source give for `Cc1nnc2ccc3c(cc(-c4c[nH]cn4)n3Cc3cccc(Cl)c3)n12` [Example 172, 6-(3-Chlorobenzyl)-7-(1H-imidazol-4-yl)-1-methyl-6H-pyrrolo[2,3-e][1,2,4]triazolo[4,3-a]pyridine bis(trifluoroacetate) salt] here?
Answer: Its IC50 is ≤ 1000 nM.

Question: How did the IC50 turn out when `CN[C@H]1CC[C@@H](Nc2cc3c(cc(C)n3Cc3ccccc3)n3c(C)nnc23)CC1` [Example 221, cis-N-(6-Benzyl-1,7-dimethyl-6H-pyrrolo[2,3-e][1,2,4]triazolo[4,3-a]pyridin-4-yl)-N′-methylcyclohexane-1,4-diamine] was run?
Answer: The IC50 was 1000 to 10000 nM.

Question: For `Cc1nnc2ccc3c(cc(C(=O)N[C@H]4C[C@H](C#N)C4)n3Cc3ccccc3)n12` [Example 100, 6-benzyl-N-(trans-3-cyanocyclobutyl)-1-methyl-6H-pyrrolo[2,3-e][1,2,4]triazolo[4,3-a]pyridine-7-carboxamide], which IC50 is on record?
Answer: The IC50 was 1000 to 10000 nM.
